Laboratory results reported in patent US4370337A, “1,2,4-Triazole derivatives as antifertility agents and pharmaceutical compositions containing them” (Gruppo Lepetit S.p.A., priority 1980, dated 1983).

Columns and labels:
[1] = system: female Syrian golden hamsters; assay: Post-coital antifertility activity in mated hamsters, subcutaneous (autopsy on day 14: implantation sites, live fetuses); assay type: in vivo, Syrian golden hamster; settings: for ED50: Mesocricetus auratus, sc, s.c. hamsters, days 4-8 of pregnancy, read-out: ED50 (100% activity, i.e. absence of live fetuses, in 50% of the animals); for antifertility activity (active according to the criteria): s.c. in sesame oil, 10 mg/kg daily for 5 days (days 4-8 of pregnancy), hamsters
Protocol: (§1) Representative experiments for assessing antifertility activity were carried out with female Syrian golden hamsters weighing 100 to 130 g. The animals were mated and the presence of sperm in the vagina was taken as evidence of mating. The day sperm was detected was considered day one of pregnancy, since in our laboratory and those of other investigators 90 to 100% of animals that mate as evidenced by vaginal sperm are pregnant.
(§2) Pregnancy was later confirmed at the time of autopsy by presence of fetuses or implantation sites in the uterus.
(§3) Even if an animal aborts the fetus, implantation scars still remain as evidence that the animal has been pregnant.
The animals were autopsied on day 14 of pregnancy and the uteri were examined for evidence of pregnancy (implantation sites, fetal resorptions or live fetuses), hemorrage, and evidence of abnormalities of the uterus, placenta or fetuses.

[2] = system: hamsters; assay: Post-coital antifertility activity in mated hamsters, oral route; assay type: in vivo, Syrian golden hamster; settings: for reduction of live fetuses: oral, 20 mg/Kg, hamsters
Protocol: as §1, §2, §3
The animals were autopsied on day 14 of pregnancy and the uteri were examined for evidence of pregnancy (implantation sites, fetal resorptions or live fetuses), hemorrage, and evidence of abnormalities of the uterus, placenta or fetuses. A compound was considered to be active if there was a reduction of live fetuses in at least 60% of the treated animals and the presence of implantation sites proves the animal to have been pregnant. […] The compounds were then studied for dose-activity relationships and the corresponding ED50 values i.e., 100% activity (absence of live fetuses) in 50% of the animals, were also determined. The following table reports the ED50 values of some representative compounds of the invention:
Favorable results were also obtained by administering the compounds of the invention by oral route. The experiments for assessing this property were carried out on hamsters following the same procedure as above, with the obvious exception that the compounds were adminstered orally instead of subcutaneously.

SMILES | ED50 [1] | antifertility activity (active according to the criteria) [1] | ED50 ([2]; Mesocricetus auratus, po, p.o. hamsters, read-out: ED50 (100% activity, i.e. absence of live fetuses, in 50% of the animals)) | reduction of live fetuses [2]
COc1cccc(-c2n[nH]c(-c3ccccc3CO)n2)c1 [Example 1, 5-(2-hydroxymethylphenyl)-3-(3-methoxyphenyl)-1H-,1,2,4-triazole] | 0.08 mg/kg | active | 10 mg/kg | 60%
COc1cccc(-c2nc(-c3ccccc3C=O)n[nH]2)c1 [Example 3, 2-[5-(3-methoxyphenyl)-1H-1,2,4-triazol-3yl]benzaldehyde] | 0.1 mg/kg | active | – | 60%
